In the assay the target is T1, MESH1 (Homo sapiens, UniProt Q8N4P3).
T1 construct: gene HDDC3; pET28 derivative, expressed in E. coli BL21(lambda DE3); His-tag removed with thrombin
The experiment in a line: TLC hydrolysis assay (PEI-cellulose). The assay is classed as biochemical. The settings on record: 5 mM substrate, pH 8.0, 37°C, 250 mM NaCl, 14 mM MgCl2, 6.5 mM MnCl2.

T1 sequence (Q8N4P3 whole entry): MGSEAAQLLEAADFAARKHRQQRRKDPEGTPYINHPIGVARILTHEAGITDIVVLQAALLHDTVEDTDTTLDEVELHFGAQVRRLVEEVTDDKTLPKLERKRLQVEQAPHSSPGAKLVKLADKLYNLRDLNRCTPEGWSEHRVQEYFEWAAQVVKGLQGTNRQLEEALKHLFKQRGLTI

Regarding `Nc1ncnc2c1ncn2[C@@H]1O[C@H](COP(=O)(O)OP(=O)(O)O)[C@@H](OP(=O)(O)OP(=O)(O)O)[C@H]1O` [ppApp], the “TLC hydrolysis assay (PEI-cellulose)” value was “The human MESH1 hydrolase displays similar activities as shown for Drosophila Mesh1”.

Turning to `Nc1ncnc2c1ncn2[C@@H]1O[C@H](COP(=O)(O)OP(=O)(O)OP(=O)(O)O)[C@@H](OP(=O)(O)OP(=O)(O)O)[C@H]1O` [pppApp], the “TLC hydrolysis assay (PEI-cellulose)” value is reported as “The human MESH1 hydrolase displays similar activities as shown for Drosophila Mesh1”.

For the origin of these results see paper PMC7644958, “Estimates of RelSeq, Mesh1, and SAHMex Hydrolysis of (p)ppGpp and (p)ppApp by Thin Layer Chromatography and NADP/NADH Coupled Assays” (Frontiers in Microbiology, 2020).
